In PMC4849045, “Hepatoprotective Limonoids from Andiroba (Carapa guianensis)” (International Journal of Molecular Sciences, 2016):
Where two headings read alike, the source gives them in different places.

What was measured:
[1] = tested on: primary cultured mouse hepatocytes; assay: D-GalN-induced cytotoxicity in primary cultured mouse hepatocytes (MTT assay); conditions: Hepatocyte, read-out: Inhibition (%) of D-GalN-induced cytotoxicity
Procedure: Assay for the D-GalN-induced cytotoxicity in primary cultured mouse hepatocytes was performed as described previously [33, 35, 36].

[2] = tested on: LPS-activated NO production in mouse peritoneal macrophages; assay: LPS-induced NO production in mouse peritoneal macrophages; assay type: cell-based; conditions: Peritoneal macrophage; for inhibition at 3 µM / inhibition at 10 µM / inhibition at 30 µM / inhibition at 100 µM: read-out: Inhibition (%) of LPS-activated NO production; for IC50: read-out: IC50, inhibition of LPS-activated NO production
Procedure: The effects of limonoids (1–17) on NO production were examined to provide an estimation of macrophage activation levels in LPS-treated mouse peritoneal macrophages.
Assay for NO production in TGC-induced mouse peritoneal macrophages was performed as described previously. N^G-Monomethyl-L-arginine (L-NMMA) and caffeic acid phenethyl ester (CAPE) were used as reference compounds [33, 36].

[3] = Cell viability of LPS-treated mouse peritoneal macrophages (MTT assay); assay type: cell-based
[4] = tested on: L929 cells; assay: TNF-α-induced cytotoxicity in L929 cells (MTT assay); assay type: cell-based; conditions: Mus musculus; for inhibition at 1 µM / inhibition at 3 µM / inhibition at 10 µM / inhibition at 30 µM: read-out: Inhibition (%) of TNF-α-induced cytotoxicity; for IC50: read-out: IC50, inhibition of TNF-α-induced decrease in cell viability
Procedure: The effects of the limonoids (1–17) on the sensitivity of hepatocytes to TNF-α were assessed by measuring TNF-α-induced decreases in the viability of L929 cells, a TNF-α-sensitive cell line, by using the MTT assay. In the absence of a test sample, the cells incubated with 1 ng/mL TNF-α for 44 h were compared with those not incubated with TNF-α.
Assay for the TNF-α-induced cytotoxicity in L929 cells was performed as described previously. Silybin was used as a reference compound [36].

[5] = Mus musculus, 3 µM, mean ± S.E.M. (n = 4)
[6] = Mus musculus, 10 µM, mean ± S.E.M. (n = 4)
[7] = Mus musculus, 30 µM, mean ± S.E.M. (n = 4)
[8] = Mus musculus, 100 µM, mean ± S.E.M. (n = 4)
[9] = LPS-treated TGC-induced mouse peritoneal macrophages, 3 µM, mean ± S.E.M. (n = 4), read-out: cell viability (%) in MTT assay (values in parentheses) (converted)
[10] = LPS-treated TGC-induced mouse peritoneal macrophages, 10 µM, mean ± S.E.M. (n = 4), read-out: cell viability (%) in MTT assay (values in parentheses) (converted)
[11] = LPS-treated TGC-induced mouse peritoneal macrophages, 30 µM, mean ± S.E.M. (n = 4), read-out: cell viability (%) in MTT assay (values in parentheses) (converted)
[12] = LPS-treated TGC-induced mouse peritoneal macrophages, 100 µM, mean ± S.E.M. (n = 4), # = cytotoxic effects were observed, read-out: cell viability (%) in MTT assay (values in parentheses) (converted)
[13] = L929, 1 µM, 1 ng/mL TNF-α, 44 h, mean ± S.E.M. (n = 4)
[14] = L929, 3 µM, 1 ng/mL TNF-α, 44 h, mean ± S.E.M. (n = 4)
[15] = L929, 10 µM, 1 ng/mL TNF-α, 44 h, mean ± S.E.M. (n = 4)
[16] = L929, 30 µM, 1 ng/mL TNF-α, 44 h, mean ± S.E.M. (n = 4)
[17] = 3 µM, mean ± S.E.M. (n = 4), read-out: cell viability (%) in MTT assay (values in parentheses) (converted)
[18] = 10 µM, mean ± S.E.M. (n = 4), read-out: cell viability (%) in MTT assay (values in parentheses) (converted)
[19] = 30 µM, mean ± S.E.M. (n = 4), read-out: cell viability (%) in MTT assay (values in parentheses) (converted)
[20] = 100 µM, mean ± S.E.M. (n = 4), # = cytotoxic effects were observed, read-out: cell viability (%) in MTT assay (values in parentheses) (converted)
[21] = L929 cells, 1 ng/mL TNF-α, 44 h

Row | SMILES | inhibition at 3 µM [1] | inhibition at 10 µM [1] | inhibition at 30 µM [1] | inhibition at 100 µM [1] | inhibition at 3 µM [2, 5] | inhibition at 10 µM [2, 6] | inhibition at 30 µM [2, 7] | inhibition at 100 µM [2, 8] | IC50 ([2]; mouse peritoneal macrophages) | viability at 3 µM [3, 9] | viability at 10 µM [3, 10] | viability at 30 µM [3, 11] | viability at 100 µM [3, 12] | inhibition at 3 µM [4, 14] | inhibition at 10 µM [4, 15] | inhibition at 30 µM [4, 16] | viability at 3 µM [3, 17] | viability at 10 µM [3, 18] | viability at 30 µM [3, 19] | viability at 100 µM [3, 20] | other results
1 | CC(=O)O[C@@H]1C2C(C)(C)C(=O)C=C[C@]2(C)C2CC[C@@]3(C)[C@H](c4ccoc4)OC(=O)[C@H]4O[C@]43[C@]2(C)[C@@H]1O (stereo partly shown) [compound 5, andirolide H] | -6.2 ± 2.6% | -9 ± 0.5% | -9.2 ± 0.8% | -0.6 ± 0.8% | 5.8 ± 6.1% | 63.9 ± 3% | 97.2 ± 0.9% | 99.7 ± 0.5% | 9.4 µM | 99.8% | 104% | 109% | 4.9% | -0.7 ± 1.2% | 7.6 ± 1.1% | 39.2 ± 1.7% | – | – | – | – | inhibition at 1 µM [4, 13]: -6.6 ± 3.6%
2 | CC(=O)O[C@@H]1C[C@H]2C(C)(C)C(=O)C=C[C@]2(C)[C@H]2CC[C@@]3(C)[C@H](c4ccoc4)C(=O)[C@H]4O[C@]43[C@@]21C [compound 8, epoxyazadiradione] | -3.1 ± 8.9% | -2.2 ± 2.5% | -10.8 ± 0.6% | -11.9 ± 0.3% | 10.5 ± 0.9% | 56 ± 4% | 103 ± 4% | 112.3 ± 0.7% | 8.2 µM | – | – | – | – | – | – | – | 99.6% | 94.8% | 81.9% | 10% | IC50 ([4]; L929, 44 h): 10.2 µM; inhibition at 3 µM ([4]; L929, 44 h): 13.7 ± 3.9%; inhibition at 10 µM ([4]; L929, 44 h): 39.1 ± 6.5%; inhibition at 30 µM ([4]; L929, 44 h): 91.5 ± 11.4%
3 | CC(=O)O[C@@H]1CC2C(C)(C)C(=O)C=C[C@]2(C)C2CC[C@]3(C)C(=CC(=O)[C@@]3(O)c3ccoc3)[C@@]21C (stereo partly drawn) [compound 9, 17β-hydroxyazadiradione] | 15.3 ± 2.3% | -4.1 ± 1.2% | -7.5 ± 1.4% | -7.5 ± 4% | – | – | – | – | – | – | – | – | – | – | – | – | – | – | – | – | IC50 ([2]; Mus musculus): 20.3 µM; inhibition at 3 µM ([2]; Mus musculus): -10.4 ± 6.8%; inhibition at 10 µM ([2]; Mus musculus): 9.4 ± 7.1%; inhibition at 30 µM ([2]; Mus musculus): 65.1 ± 4.5%; inhibition at 100 µM ([2]; Mus musculus): 97.4 ± 0.7%; viability at 3 µM [3]: 95.4%; viability at 10 µM [3]: 94.4 ± 14.1%; viability at 30 µM [3]: 94.8%; viability at 100 µM [3]: 84.8%; inhibition at 1 µM ([4]; L929, 44 h): 14.1 ± 3.4%; inhibition at 3 µM ([4]; L929, 44 h): 23.9 ± 3.9%; inhibition at 10 µM ([4]; L929, 44 h): 64 ± 3.3%; inhibition at 30 µM ([4]; L929, 44 h): 91.3 ± 8.2%; IC50 [4, 21]: 6.9 µM
4 | CCC(C)C(=O)OC1C2(OC(C)=O)CC3(O)C4=CC(=O)OC(c5ccoc5)C4(C)CCC3C(C)(C2=O)C(CC(=O)OC)C1(C)C (stereo not shown) [compound 10, Carapanolide C] | 8 ± 4.3% | 3.4 ± 4.2% | 6.7 ± 2.1% | -7.7 ± 4.4% | 4.2 ± 8.8% | 20.8 ± 5% | 20.2 ± 4.9% | 13.2 ± 1.9% | > 100 µM | 96% | 98.9% | 91.8% | 80% | 14.2 ± 3.2% | 27.7 ± 4.3% | 54.5 ± 5.5% | – | – | – | – | inhibition at 1 µM [4, 13]: 4.9 ± 2.1%; IC50 [4, 21]: 27 µM
5 | CCC(=O)OC1C2(O)C(OC(C)=O)C3(C)CC24OC2(C)OC15C1CC(=O)OC(c6ccoc6)C1(C)C(OC(C)=O)C(O)C5(O2)C4(C)C3CC(=O)OC (stereo not shown) [compound 13, Carapanolide M] | -7 ± 0.5% | -7.3 ± 0.7% | 1 ± 0.4% | -9.9 ± 1% | – | – | – | – | – | – | – | – | – | -1.5 ± 7.1% | 7 ± 4.4% | -5.1 ± 6.2% | 99.2% | 95.1% | 94.2% | 112% | IC50 ([2]; Mus musculus): 41.6 µM; inhibition at 3 µM ([2]; Mus musculus): -1.1 ± 2.7%; inhibition at 10 µM ([2]; Mus musculus): 3.2 ± 2.8%; inhibition at 30 µM ([2]; Mus musculus): 30.3 ± 3.1%; inhibition at 100 µM ([2]; Mus musculus): 85.1 ± 1.5%
6 | CCC(=O)OC1C2(O)C(OC(C)=O)C3(C)CC24OC2(C)OC15C1CC(=O)OC(c6ccoc6)C1(C)C(OC(C)=O)CC5(O2)C4(C)C3C(OC(C)=O)C(=O)OC (stereo not shown) [compound 14, Carapanolide Q] | 2.7 ± 1.9% | -3.5 ± 2.9% | -2.5 ± 2.1% | -6.2 ± 1.7% | – | – | – | – | – | 99.8% | 96.3% | 95.5% | 116% | 8.6 ± 4.4% | 1.3 ± 4.2% | 9.2 ± 2.5% | – | – | – | – | IC50 ([2]; Mus musculus): 38 µM; inhibition at 3 µM ([2]; Mus musculus): 1.9 ± 0.7%; inhibition at 10 µM ([2]; Mus musculus): 14.4 ± 2.2%; inhibition at 30 µM ([2]; Mus musculus): 44.3 ± 1.1%; inhibition at 100 µM ([2]; Mus musculus): 75.3 ± 3.5%
7 | COC(=O)C(OC(C)=O)C1C2(C)CC34OC5(C)OC6(C7CC(=O)OC(c8ccoc8)C7(C)C(OC(C)=O)C(O)C6(O5)C13C)C(OC(=O)C(C)C)C4(O)C2OC(C)=O (stereo not shown) [compound 15, Carapanolide O] | 7.5 ± 3.9% | -5.3 ± 5.6% | -5.2 ± 3.9% | -2.1 ± 1.7% | -2.5 ± 5.4% | 14.7 ± 8.2% | 6.9 ± 5% | 102 ± 3.2% | 46 µM | – | – | – | – | – | – | – | 104% | 108% | 107% | 109% | inhibition at 3 µM ([4]; L929, 44 h): 6.3 ± 4.3%; inhibition at 10 µM ([4]; L929, 44 h): 1 ± 6.4%; inhibition at 30 µM ([4]; L929, 44 h): 1.5 ± 4.1%
